In paper PMC6009896, “Dual targeting of cancer-related human matrix metalloproteinases and carbonic anhydrases by chiral N-(biarylsulfonyl)-phosphonic acids” (Journal of Enzyme Inhibition and Medicinal Chemistry, 2017):
Like-named read-outs stand apart in the source and are kept apart here. One block for each molecule: values may come before it.

Legend:
MMP-8 = test system: MMP-8; set-up: method as in PMID 17088065, PMID 16451058, PMID 19204958; conditions: Table 2; existing data ref 16, 17, 24; cited from earlier work
Human CA IX = Human CA IX (Homo sapiens, UniProt Q16790); test: CA catalyzed CO2 hydration stopped-flow assay, CA IX
Procedure: (§1) An applied photophysics stopped-flow instrument has been used for assaying the CA catalyzed CO2 hydration activity. […] The CO2 concentrations ranged from 1.7 to 17 mM for the determination of the kinetic parameters and inhibition constants. […] The uncatalyzed rates were determined in the same manner and subtracted from the total observed rates. Stock solutions of inhibitor (10–50 mM) were prepared in distilled-deionized water and dilutions up to 0.1 nM were done thereafter with the assay buffer.

MMP-2 = test system: MMP-2; set-up: method as in PMID 17088065, PMID 16451058, PMID 19204958; conditions: Table 2; existing data ref 16, 17, 24; cited from earlier work
Human CA I = Human CA I (Homo sapiens, UniProt P00915); test: CA catalyzed CO2 hydration stopped-flow assay, CA I
Chain of Human CA I (P00915 whole entry): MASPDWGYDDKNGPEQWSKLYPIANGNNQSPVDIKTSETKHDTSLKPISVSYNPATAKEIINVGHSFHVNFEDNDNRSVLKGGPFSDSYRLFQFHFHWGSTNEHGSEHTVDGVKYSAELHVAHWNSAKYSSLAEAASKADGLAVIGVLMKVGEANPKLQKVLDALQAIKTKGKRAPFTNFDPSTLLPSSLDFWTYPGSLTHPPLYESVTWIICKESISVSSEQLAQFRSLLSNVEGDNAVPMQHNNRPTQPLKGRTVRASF
Procedure: as §1

Human CA XII = Human CA XII (Homo sapiens, UniProt O43570); test: CA catalyzed CO2 hydration stopped-flow assay, CA XII
Chain of Human CA XII (O43570 25-354): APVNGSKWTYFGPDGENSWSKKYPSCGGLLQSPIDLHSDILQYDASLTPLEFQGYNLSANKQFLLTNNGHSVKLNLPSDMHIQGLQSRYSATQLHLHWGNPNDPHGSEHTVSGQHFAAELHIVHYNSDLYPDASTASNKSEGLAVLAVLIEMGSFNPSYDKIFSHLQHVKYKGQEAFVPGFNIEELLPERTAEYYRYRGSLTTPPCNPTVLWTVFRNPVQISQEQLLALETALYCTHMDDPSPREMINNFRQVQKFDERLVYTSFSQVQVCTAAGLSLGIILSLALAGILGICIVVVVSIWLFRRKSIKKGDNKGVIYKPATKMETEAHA
Procedure: as §1

Human CA II = Human CA II (Homo sapiens, UniProt P00918); test: CA catalyzed CO2 hydration stopped-flow assay, CA II; conditions: for decrease in activity on CA II compared to the standard AAZ: versus AAZ
Procedure: as §1

Human CA XIV = Human CA XIV (Homo sapiens, UniProt Q9ULX7); test: CA catalyzed CO2 hydration stopped-flow assay, CA XIV
Chain of Human CA XIV (Q9ULX7 16-337): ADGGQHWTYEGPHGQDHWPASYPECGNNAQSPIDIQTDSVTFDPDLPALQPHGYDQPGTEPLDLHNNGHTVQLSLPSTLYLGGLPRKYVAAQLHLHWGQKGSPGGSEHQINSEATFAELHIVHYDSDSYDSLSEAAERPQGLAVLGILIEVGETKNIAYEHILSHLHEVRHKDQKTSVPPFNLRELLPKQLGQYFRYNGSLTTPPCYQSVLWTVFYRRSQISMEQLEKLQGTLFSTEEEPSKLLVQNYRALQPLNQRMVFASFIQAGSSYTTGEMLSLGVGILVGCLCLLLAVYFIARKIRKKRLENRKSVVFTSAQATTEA
Procedure: as §1

[1] = read-out: IC50 CA IX, Table 2, recombinant human CA IX, stopped-flow CO2 hydration
[2] = read-out: IC50 CA I, Table 1, recombinant human CA I, stopped-flow CO2 hydration, 15 min preincubation
[3] = read-out: IC50 CA I, Table 2, recombinant human CA I, stopped-flow CO2 hydration
[4] = read-out: IC50 CA XII, Table 2, recombinant human CA XII, stopped-flow CO2 hydration
[5] = read-out: IC50 CA II, Table 1, human CA II, stopped-flow CO2 hydration, 15 min preincubation
[6] = read-out: IC50 CA XIV, Table 2, recombinant human CA XIV, stopped-flow CO2 hydration
[7] = IC50 CA II, Table 1, human CA II, stopped-flow CO2 hydration, 15 min preincubation
[8] = read-out: IC50 CA II, Table 2, recombinant human CA II, stopped-flow CO2 hydration

IC50 (Human CA IX; [1]): 0.093 µM
IC50 (Human CA I; [2]): > 10 µM
IC50 (Human CA I; [3]): > 10 µM
decrease in potency on CA XII in comparison to CA IX (Human CA XII; CA XII versus CA IX): 4 fold
IC50 (Human CA XII; read-out: IC50 CA XII, rounded value): 0.47 µM
IC50 (Human CA XII; [4]): 0.475 µM
decrease in activity on CA II compared to the standard AAZ (Human CA II): ~100 fold
IC50 (Human CA II; [5]): 4.14 µM
IC50 (Human CA II; read-out: IC50 CA II, Table 2, CA II from Sigma): 4.14 µM
decrease in potency on CA XIV in comparison to CA IX (Human CA XIV; CA XIV versus CA IX): 4 fold
IC50 (Human CA XIV; read-out: IC50 CA XIV, rounded value): 0.37 µM
IC50 (Human CA XIV; [6]): 0.369 µM
Structure (SMILES): Cc1ccc(-c2ccc(S(=O)(=O)N[C@@H](C(C)C)P(=O)(O)O)cc2)cc1 [(R)-12, (R)-N-(4′-methylbiphenylsulfonyl)-phosphovaline]
IC50 (MMP-8): 0.0004 µM
IC50 (MMP-2): 0.0023 µM

IC50 (Human CA I): > 10 µM
IC50 (Human CA II; [7]): > 10 µM
Structure (SMILES): Cc1cccc(-c2ccc(S(=O)(=O)N[C@@H](C(C)C)P(=O)(O)O)cc2)c1 [(R)-13, (R)-1-[3′-methyl-biphenyl-4-sulfonylamino]-2-methylpropyl phosphonic acid]

IC50 (Human CA I; [2]): > 10 µM
IC50 (Human CA II; [5]): > 10 µM
Structure (SMILES): O=P(O)(O)CS(=O)(=O)c1ccc(-c2ccccc2)cc1 [Compound 1]

IC50 (Human CA I; [2]): > 10 µM
IC50 (Human CA II; [5]): > 10 µM
Structure (SMILES): COc1ccc(-c2ccc(S(=O)(=O)CP(=O)(O)O)cc2)cc1 [Compound 4]

IC50 (Human CA I; [2]): > 10 µM
IC50 (Human CA II; [5]): > 10 µM
Structure (SMILES): O=P(O)(O)CS(=O)(=O)c1ccc(-c2cccs2)cc1 [Compound 7]

IC50 (Human CA I; [2]): > 10 µM
IC50 (Human CA II; [5]): > 10 µM
Structure (SMILES): COc1ccc(Oc2ccc(S(=O)(=O)CP(=O)(O)O)cc2)cc1 [Compound 8]

inhibitory activity on CA I (in words) (Human CA I): completely devoid of activity
IC50 (Human CA I; [2]): > 10 µM
inhibitory activity on CA II (in words) (Human CA II): completely devoid of activity
IC50 (Human CA II; [5]): > 10 µM
Structure (SMILES): O=C(O)CS(=O)(=O)c1ccc(-c2ccccc2)cc1 [Compound 2]

IC50 (Human CA IX; read-out: IC50 CA IX, rounded value): 0.5 µM
IC50 (Human CA IX; [1]): 0.527 µM
IC50 (Human CA I; read-out: IC50 CA I, rounded value): 8.3 µM
IC50 (Human CA I; [2]): 8.3 µM
IC50 (Human CA I; [3]): 8.3 µM
IC50 (Human CA XII; [4]): 8.86 µM
decrease in activity on CA II compared to the standard AAZ (Human CA II): ~100 fold
IC50 (Human CA II; [5]): 3.66 µM
IC50 (Human CA II; [8]): 3.66 µM
IC50 (Human CA XIV; [6]): 8.53 µM
Structure (SMILES): O=C(CS(=O)(=O)c1ccc(-c2ccccc2)cc1)NO [Compound 3]
IC50 (MMP-8): 0.024 µM
IC50 (MMP-2): 0.006 µM

IC50 (Human CA I; [2]): > 10 µM
IC50 (Human CA II; [5]): > 10 µM
Structure (SMILES): O=P(O)(O)CS(=O)(=O)c1ccc(-c2ccc(C(F)(F)F)cc2)cc1 [Compound 5]

IC50 (Human CA I; [2]): > 10 µM
IC50 (Human CA II; [5]): > 10 µM
Structure (SMILES): CC(C)CC(P(=O)(O)O)S(=O)(=O)c1ccc(-c2ccccc2)cc1 (racemic) [Compound 9]

IC50 (Human CA IX): 0.837 µM
IC50 (Human CA I): > 10 µM
IC50 (Human CA I; [3]): > 10 µM
IC50 (Human CA XII): 8.48 µM
IC50 (Human CA II; [7]): > 10 µM
IC50 (Human CA II; IC50 CA II, Table 2, recombinant human CA II, stopped-flow CO2 hydration): 21.1 µM
IC50 (Human CA XIV): 7.47 µM
Structure (SMILES): COc1ccc(-c2ccc(S(=O)(=O)C(Cc3ccccc3)P(=O)(O)O)cc2)cc1 (stereo not drawn) [Compound 10, 1–(4′-methoxybiphenyl-4-sulfonyl)-2-phenylethylphosphonic acid]
IC50 (MMP-2): 8.2 µM

IC50 (Human CA IX; [1]): 0.084 µM
IC50 (Human CA I; [2]): > 10 µM
IC50 (Human CA I; [3]): > 10 µM
IC50 (Human CA XII; [4]): 6.22 µM
decrease in activity on CA II compared to the standard AAZ (Human CA II): ~100 fold
IC50 (Human CA II; [5]): 3.78 µM
IC50 (Human CA II; [8]): 3.78 µM
IC50 (Human CA XIV; [6]): 1.52 µM
Structure (SMILES): COc1ccc(-c2ccc(S(=O)(=O)N[C@@H](C(C)C)P(=O)(O)O)cc2)cc1 [(R)-15, (R)-N-(4′-methoxybiphenylsulfonyl)-phosphovaline]
IC50 (MMP-8): 0.0014 µM
IC50 (MMP-2): 0.0015 µM

IC50 (Human CA I; [2]): > 10 µM
IC50 (Human CA II; [5]): > 10 µM
Structure (SMILES): CC(C)(P(=O)(O)O)S(=O)(=O)c1ccc(-c2ccccc2)cc1 [Compound 11]

IC50 (Human CA I; [2]): > 10 µM
IC50 (Human CA II; [5]): > 10 µM
Structure (SMILES): O=P(O)(O)CS(=O)(=O)c1ccc(-c2cccc(Cl)c2)cc1 [Compound 6]
